These results are taken from patent US8686177B2, “LPA receptor agonists and antagonists” (RxBio, Inc., priority 2008, dated 2014).

One test deals with LPA receptors (LPA1/2/3). Nature of the test: LPA receptor agonist/antagonist activity (Table 4). In kind it is cell-based. The protocol: Compounds were tested for their ability to induce or inhibit LPA-induced calcium transients in RH7777 rat hepatoma cells stably expressing LPA1, LPA2, and LPA3 receptors and in PC-3 that express LPA1-3 endogenously, using a FlexStation II automated fluorometer (Molecular Devices, Sunnyvale, Calif.).
RH7777 cells stably expressing either LPA1, LPA2 or LPA3 or PC-3 cells were plated on poly-D lysine-coated black wall clear bottom 96-well plates (Becton Dickinson, San Jose, Calif.) with a density of 50000 cells/well, and cultured overnight. The culture medium (DMEM containing 10% FBS) was then replaced with modified Krebs solution (120 mM NaCl, 5 mM KCl, 0.62 mM MgSO4, 1.8 mM CaCl2, 10 mM HEPES, 6 mM glucose, pH 7.4) and the cells were serum starved for 6-8 hours (12 h for PC-3 cells). Cells were loaded with Fura-2 AM for 35 minutes in modified Krebs medium. The Fura-2 was removed before loading the plate in the FlexStation instrument by replacing the medium once again with 100 μl modified Krebs medium/well. Plates were incubated for 4 minutes in the instrument to allow for warming to 37° C. Changes in intracellular Ca^2+ concentration were monitored by measuring the ratio of emitted light intensity at 520 nm in response to excitation by 340 nm and 380 nm wavelength lights, respectively. Each well was monitored for 80-120 seconds. […] Time courses were recorded using the SoftMax Pro software (Molecular Devices, Sunnyvale, Calif.). Ca^+ transients were quantified automatically by calculating the difference between maximum and baseline ratio values for each well.

Test [1] relates to IEC-6 cells. Nature of the test: Camptothecin-induced DNA fragmentation in IEC-6 cells (Example 8, Cell Death Detection ELISA). The test is classed as cell-based. To be noted: 20 μM camptothecin; LPA and FAP 12 at 10 μM. As to the method:
IEC-6 cells were grown in DMEM medium supplemented with 5% fetal bovine serum, insulin (10 μg/ml), gentamycin sulfate (50 μg/ml), and incubated at 37° C. in a humidified 90% air-10% CO2 atmosphere. Medium was changed every other day. Sub-confluent cells were washed twice and replaced by DMEM without serum the night before experiments.
Damage and IEC-6 cell apoptosis was induced via either γ-irradiation or chemotherapy. 20 Gy single dose of [^137Cs] source γ-irradiation was used in all experiments. […] In some experiments, LPA was added at different times before or after irradiation. Treatment with 20 μM camptothecin of IEC-6 cells induces DNA fragmentation as measured by the ELISA assay at 16 h after treatment. DNA fragmentation was quantified using the Cell Death Detection ELISA kit from Boehringer (Indianapolis, Ind.) according to the instructions of the manufacturer. Samples were run in triplicate. A duplicate of the sample was used to quantify protein concentration using the BCA kit from Pierce (Rockford, Ill.). DNA fragmentation was expressed as absorbance units per μg protein per minute.

The subject of test [2] is IEC-6 cells. Nature of the test: DNA fragmentation assay in camptothecin-induced IEC-6 cells (Example 11, FIG. 7). In kind it is cell-based. To be noted: 20 μM camptothecin, 15 min pre-treatment, 6 hours. The protocol: IEC-6 cells were obtained from the American Type Culture Collection (Manassas, Va.) and were grown in Dulbecco's modified Eagle medium (DMEM) supplemented with 10% fetal bovine serum, 10 μg/ml insulin, and 50 μg/ml gentamicin sulfate at 37° C. in a humidified 90% air/10% CO2 atmosphere. The medium was changed every other day. Cells between passage 15 and 21 were used for the experiments. Newly synthesized RxBio analogs at doses ranging from […] were used to pre-treat IEC-6 cells for 15 min. Apoptosis was induced by 20 μM camptothecin following the pre-treatment. DNA fragmentation was measured 6 hours after camptothecin treatment by enzyme-linked immunosorbent assay using the cell death detection ELISA^PLUS kit from Roche (Indianapolis, Ind.) following the instruction of the manufacturer. Briefly, cells were harvested and lysed in DNA lysis buffer for 30 min. Sample lysates were collected after centrifugation at 200 rpm for 10 min. 10 μl of supernatant was loaded individually in a 96-well streptavidin-coated plate and incubated with immunoreagents (anti-histone-biotin plus anti-DNA peroxidase conjugated antibody) on a shaker for 2 h. […] DNA absorbance was read at 405 nm in a microplate reader (PerkinElmer, Shelton, Conn.). Aliquots of samples were used to quantify protein concentration using the bicinchoninic acid kit (Pierce, Rockford, Ill.).

The next test concerns the target T1, LPA1 receptor (Homo sapiens, UniProt Q92633).
T1 construct: expressed in transfected cells
Nature of the test: LPA-induced Ca2+ transients in RH7777 cells stably expressing LPA1 (agonism/antagonism). In kind it is cell-based. The following applies: RH7777 cells expressing LPA1, compared to LPA 18:1.

For the next test, the target named is T2, LPA2 receptor (Homo sapiens, UniProt Q9HBW0).
T2 construct: expressed in transfected cells
T2 sequence (Q9HBW0 whole entry): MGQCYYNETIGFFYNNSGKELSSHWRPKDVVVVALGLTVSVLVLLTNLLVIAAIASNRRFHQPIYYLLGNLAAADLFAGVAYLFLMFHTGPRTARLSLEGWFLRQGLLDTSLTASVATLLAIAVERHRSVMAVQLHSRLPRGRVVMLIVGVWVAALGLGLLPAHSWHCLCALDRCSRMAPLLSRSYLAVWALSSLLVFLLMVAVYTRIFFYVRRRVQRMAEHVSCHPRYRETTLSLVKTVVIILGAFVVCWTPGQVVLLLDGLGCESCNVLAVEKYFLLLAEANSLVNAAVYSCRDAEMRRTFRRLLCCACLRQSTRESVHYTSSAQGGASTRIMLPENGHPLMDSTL
The experiment in a line: LPA-induced Ca2+ transients in RH7777 cells stably expressing LPA2 (agonism/antagonism). The test is classed as cell-based. To be noted: RH7777 cells expressing LPA2, compared to LPA 18:1.

In the next test the target is T3, LPA3 receptor (Homo sapiens, UniProt Q9UBY5).
T3 construct: expressed in transfected cells
T3 sequence (Q9UBY5 1-353): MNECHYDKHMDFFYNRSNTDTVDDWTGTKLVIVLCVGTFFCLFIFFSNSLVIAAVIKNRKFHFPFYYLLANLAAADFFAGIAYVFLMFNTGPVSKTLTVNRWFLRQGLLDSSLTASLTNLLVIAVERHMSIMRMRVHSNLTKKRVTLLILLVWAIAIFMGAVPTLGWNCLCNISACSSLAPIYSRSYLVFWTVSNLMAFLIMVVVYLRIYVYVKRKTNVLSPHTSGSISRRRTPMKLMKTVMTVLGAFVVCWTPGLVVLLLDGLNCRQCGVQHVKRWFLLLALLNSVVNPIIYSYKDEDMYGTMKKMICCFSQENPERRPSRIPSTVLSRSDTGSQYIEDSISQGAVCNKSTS
Nature of the test: LPA-induced Ca2+ transients in RH7777 cells stably expressing LPA3 (agonism/antagonism). The test is classed as cell-based. To be noted: RH7777 cells expressing LPA3, compared to LPA 18:1.

Test [3] deals with small intestine crypts of irradiated mice. The experiment in a line: Crypt survival in whole-body gamma-irradiated mice (Example 9). The test is classed as in vivo. As to the method:
ICR strain male mice (Harlan Laboratories, body weight 30-33 g) on a 12 h light/dark cycle and otherwise maintained on a standard laboratory chow ad libitum were starved for 16 h prior to treatment. WBI was done with a 12 Gy or 15 Gy dose using Cs^137 source at a dose rate of 1.9 Gy per minute. Groups of four mice received either 250 μl of 1 mM LPA complexed with 100 μM BSA dissolved in Hanks basal salt solution or the BSA vehicle alone 2 h prior to irradiation.
For detection of the apoptotic bodies, mice were euthanized with carbon dioxide inhalation 4 h after irradiation and the small intestine was dissected and fixed in neutral phosphate buffered isotonic 10% formalin. Four ˜3- to 4-mm long segments from the small intestine were embedded in paraffin, 5 μM thick sections were cut and stained with hematoxilin and eosin. The number of surviving crypts was counted 3.5 days after irradiation.

T1 sequence (Q92633 whole entry): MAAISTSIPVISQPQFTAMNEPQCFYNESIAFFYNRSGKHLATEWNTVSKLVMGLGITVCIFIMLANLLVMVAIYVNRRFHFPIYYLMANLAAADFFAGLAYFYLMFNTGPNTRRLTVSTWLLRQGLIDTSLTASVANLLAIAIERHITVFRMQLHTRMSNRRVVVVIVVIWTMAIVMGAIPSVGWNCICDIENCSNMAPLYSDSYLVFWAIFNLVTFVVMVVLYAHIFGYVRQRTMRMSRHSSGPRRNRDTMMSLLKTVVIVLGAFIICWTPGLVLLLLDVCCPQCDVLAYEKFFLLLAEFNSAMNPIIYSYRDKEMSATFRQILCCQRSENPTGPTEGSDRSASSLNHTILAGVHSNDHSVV
Method for LPA1 receptor: (§1) RH7777 cells stably expressing either LPA1, LPA2 or LPA3 or PC-3 cells were plated on poly-D lysine-coated black wall clear bottom 96-well plates (Becton Dickinson, San Jose, Calif.) with a density of 50000 cells/well, and cultured overnight. The culture medium (DMEM containing 10% FBS) was then replaced with modified Krebs solution (120 mM NaCl, 5 mM KCl, 0.62 mM MgSO4, 1.8 mM CaCl2, 10 mM HEPES, 6 mM glucose, pH 7.4) and the cells were serum starved for 6-8 hours (12 h for PC-3 cells). […] Changes in intracellular Ca^2+ concentration were monitored by measuring the ratio of emitted light intensity at 520 nm in response to excitation by 340 nm and 380 nm wavelength lights, respectively. Each well was monitored for 80-120 seconds. […] Time courses were recorded using the SoftMax Pro software (Molecular Devices, Sunnyvale, Calif.). Ca^+ transients were quantified automatically by calculating the difference between maximum and baseline ratio values for each well.
(§2) These new analogs were evaluated as agonists and antagonists with respect to LPA1-3. […]
Method for LPA2 receptor: as §1, §2
Method for LPA3 receptor: as §1, §2

Consider `CCCCCCC1CC1CCCCCCCCCCOP([O-])(O)=S.[K+]` (centres unmarked) [RxBVG-II-34, Potassium thiophosphoryl-O-[10-(2-hexyl-cyclopropyl)-decyl]ester], for which the Activity entry in the test on LPA receptors (LPA1/2/3) was “LPA2 agonist”.

As for `[K+].[O-]P(O)(=S)OCCCCCCCCC1CC1` [RxBVG-II-23, Potassium thiophosphoryl-O-(8-cyclopropyl-octyl) ester], in the test with LPA receptors (LPA1/2/3), the Activity result is reported as “LPA2 agonist”.

As for `CCCCCCCCC1CC1CCCCCCCCCCOP([O-])(O)=S.[K+]` (centres unmarked) [RxBVG-II-36, Potassium thiophosphoryl-O-[10-(2-octyl-cyclopropyl)-decyl]ester], in the test with LPA receptors (LPA1/2/3), the Activity entry is given as “LPA2 agonist”.

Turning to `CCCCCCCC/C=C\CCCCCCCC(=O)OC[C@@H](O)COP(=O)(O)O` [oleoyl-LPA], the “inhibition of camptothecin-induced DNA fragmentation” value (“inhibition” below) in the test on IEC-6 cells [1] is recorded as “inhibited”.

`CCCCCC/C=C\CCCCCCCCOP(O)(O)=S.N` [RxBVG-I-81, Ammonium thiophosphoryl-O-hexadec-9Z-enyl ester]: the Activity entry in the test with LPA receptors (LPA1/2/3) was “Pan antago- nist (LPA1/2/3)”.

For `CCCCCCCCCCCCCCCCCCC(COP(O)(O)=S)COP(O)(O)=S.N` [RxBVG-I-64, Ammonium thiophosphoryl-O-(2-thiophosphonooxymethyl-eicosyl) ester], in the test on LPA receptors (LPA1/2/3), the Activity result was “LPA3 agonist”.

With “Potassium boranophosphoryl monododecyl ester [RxBVG-II-11]”, the Activity entry with LPA receptors (LPA1/2/3) is given as “LPA2 agonist”.

Turning to `CCCCCCCCCCCCCCC(C(=O)O)C(=O)O` [RxBVG-I-8, 2-Tetradecyl-malonic acid], the Activity entry with LPA receptors (LPA1/2/3) is “LPA2 agonist”.

Take “Ammonium thiophosphoryl-O-eicos-11Z-enyl ester [RxBVG-I-77]”: the Activity entry with LPA receptors (LPA1/2/3) was “LPA2 agonist”.

As to `CCCCCCCC/C=C/CCCCCCCCOP(O)(O)=S.N` [RxBVG-I-67, Ammonium thiophosphoryl-O-octadec-9E-enyl ester], in the test with LPA receptors (LPA1/2/3), the Activity result was “LPA3 agonist”.

`CCCCCCCCC1CC1CCCCCCCCOP(O)(O)=S.N` (stereo not drawn) [RxBVG-I-93, Ammonium thiophosphoryl-O-[8-(2-octyl-cis-cyclopropyl)-octyl]ester]: in the test on IEC-6 cells [2], the “efficacy in DNA fragmentation assay” value was “even more efficacy than did oleoyl thiophosphate”. The Activity result with LPA receptors (LPA1/2/3) is listed as “LPA2 agonist”.

`CCCCCCCC(CCCCCCC)OP(O)(O)=S` [RxBVG-I-28, Thiophosphoric acid O-(1-heptyl-octyl) ester]: the Activity result in the test with LPA receptors (LPA1/2/3) is reported as “Pan antago- nist (LPA1/2/3)”.

On to `BP(=O)(O)OCCCCCCCCCCCCCC` [RxBVG-II-9, Potassium boranophosphoryl monotetradecyl ester], for which the Activity result in the test with LPA receptors (LPA1/2/3) was “LPA2 agonist”.

Consider `CCCCCCC1CC1CCCCCCCCOP(O)(O)=S.N` (centres unmarked) [RxBVG-II-22, Ammonium thiophosphoryl-O-[8-(2-hexyl-cyclopropyl)-octyl]ester], for which, in the test on LPA receptors (LPA1/2/3), the Activity entry is recorded as “LPA2 agonist”.

For the compound `BP(=O)(O)OCCCCCCCCCCCCCCCCCC` [RxBVG-II-7, Potassium boranophosphoryl monooctadecyl ester], the Activity entry with LPA receptors (LPA1/2/3) was “LPA2 agonist”.

With `CCCCCCCCC=CCCCCCCCCOP(O)(O)=S` [8g, Thiophosphoric acid O-octadec-9-enyl ester], the “ligand property at LPA1 (FIG. 2A)” value on LPA1 receptor is “agonist”. Also, the “ligand property at LPA2 (FIG. 2B)” value at LPA2 receptor was “agonist”. The “ligand property at LPA3 (FIG. 2C)” value at LPA3 receptor is on record as “agonist”. In the test with IEC-6 cells [1], the “inhibition” value is listed as “comparable to that of LPA but supersedes it at concentrations above 3 μM”. Further, the crypt survival entry in test [3] (200 μM into the stomach 2 h prior irradiation, FIG. 3) is recorded as “significantly (P>0.01) enhanced crypt survival”. In addition, the “crypt survival, dose dependence” value in test [3] (FIG. 4) is given as “dose-dependent enhancement of crypt survival”. In addition, in test [3] (γ-irradiated mice, FIG. 5), the “crypt survival in jejunum and ileum compared with LPA” value was “present in the jejunum and ileum and exceeded that of LPA”.

Take `CCCCCCCCCCCCOP(=O)(O)O` [FAP 12]: the “inhibition” value with IEC-6 cells [1] was “inhibited”.

As to `CCCCC/C=C\C/C=C\CCCCCCCCOP(O)(O)=S` [RxBVG-I-83, Ammonium thiophosphoryl-O-octadeca-9Z,12Z-dienyl ester], the Activity entry in the test with LPA receptors (LPA1/2/3) is “LPA2 agonist”.

Turning to `BP(=O)(O)OCCCCCCCC` [RxBVG-II-13, Potassium boranophosphoryl monooctyl ester], the Activity result in the test with LPA receptors (LPA1/2/3) is “LPA2 agonist”.

For the compound `CCCCCCCC(CCCCCCC)OP(=O)(O)O.N.N` [RxBVG-I-27, Ammonium phosphoryl-mono-(1-heptyl-octyl) ester], the Activity entry with LPA receptors (LPA1/2/3) is given as “Pan antago- nist (LPA1/2/3)”.

As to `CCCC/C=C\CCCCCCCCCOP(O)(O)=S.N` [RxBVG-I-82, Ammonium thiophosphoryl-O-pentadec-10Z-enyl ester], in the test on LPA receptors (LPA1/2/3), the Activity entry is “Pan antago- nist (LPA1/2/3)”.

In the case of `CCCCCC1CC1CC1CC1CCCCCCCCOP([O-])(O)=S.[K+]` (centres unmarked) [RxBVG-II-35, Potassium thiophosphoryl-O-{8-[2-(2-pentyl-cyclopropylmethyl)-cyclopropyl]octyl}ester], in the test with LPA receptors (LPA1/2/3), the Activity entry is given as “LPA2 agonist”.
